Test results reported in patent publication US9737476B2, “Cosmetic use of an albizia julibrissin extract and corresponding topical composition” (Sederma, priority 2011, dated 2017).

Experiments:
MMP1 = experiment: Metalloproteinase in culture media after cigarette smoke extract stress (ELISA); assay type: cell-based, human; conditions: Trolox 500 μM
Procedure: Human dermal fibroblasts are cultured until confluence. Then cells are contacted with or without the test products during 24 hours. Then cells are stressed with an extract of cigarette smoke with or without the test products. After a last incubation with or without the test products, metallo-proteinases MMP1 and MMP2 present in the culture media are measured by ELISA and reduced to the number of cells (evaluated with the Hoescht reagent).

Fibroblasts = experiment: Accumulation of lipofuscin AGE-pigment (dityrosine marker); assay type: cell-based, human; conditions: Trolox 500 μM; p < 0.01
From the text: Principle and protocol: MGO is indirectly involved in the production of another group of toxins called lipofuscin. This pigment, which is seen on skin sections, is yellow in colour. It is poorly characterised as it is formed from an aggregate of different damaged cell components. Reduced functioning of the proteasome allows it to accumulate. Glycation (and therefore alteration) of the proteasome promotes the accumulation of this toxic pigment.
The same “fatiguing” cell stress as above in point 2a was used, alternating two rest periods (+/− of Albizia Julibrissin extract) and 2 periods of stress (+/− the Albizia Julibrissin extract with 500 μM microns of MGO). At the end of the second glycating stress, a dosage of the lipofuscin marker, the dityrosine was performed on the cell and reduced to the number of cells.

[1] = tested on: human dermal fibroblasts (HDF); experiment: Measurement of carboxymethyl-lysine (CML) released by fibroblasts after MGO glycating stress (Elisa); assay type: cell-based; conditions: aminoguanidine 0.03%; p < 0.01
Procedure: For the tests achieved on cell cultures, a hydro-glycolic extract obtained according to Example A) above comprising 2% of albizine was used at 0.006% diluted in aqueous excipients, of the type of cell culture media.
Principle and protocol: CML, a specific type of AGEs, accumulates during time in particular on the dermis proteins synthesized by fibroblasts. In vitro, on fibroblasts in culture, it is possible to accelerate this phenomenon by a glycating stress.
500 μM of methylglyoxal (MGO) were applied to confluent human dermal fibroblasts (HDF) to provoke AGE formation. After this glycating contact at 37° C. during 4 days, the MGO was removed from the cultures by rinsing and the Albizia Julibrissin extract was applied for 5 days. The supernatants were then removed for Elisa measurement of CML released by the fibroblasts. Cells were counted in parallel from the cell layers. Two independent tests were performed.

soluble bovine elastin = experiment: Non enzymatic glycation of elastin with fructose (fluorescence); assay type: biochemical
Procedure: Non-enzymatic glycation occurring between a protein and a reducing sugar like fructose or glucose is a spontaneous and slow reaction that can be accelerated by heat. In this test, the protein is soluble bovine elastin and the reducing sugar is fructose. They are incubated with or without test products at 50° C. for 9 days. Final products resulting from glycation may be quantified by fluorescence (λex=360 nm and λem=460 nm).

Cc1c(C)c2c(c(C)c1O)CCC(C)(C(=O)O)O2 (stereo not drawn) [Trolox]
MMP1 (MMP1; control stress 9200 +/− 1590): 3962 +/− 759 ng/10^6 cells
% change in MMP1 vs. control stress (MMP1; p < 0.05): −57%; p < 0.05
% change in dityrosine, positive MGO control (Fibroblasts): *AFU: Arbitrary fluorescence unit; positive MGO control: Trolox 500 μM: −61.1% (p < 0.01)

N=C(N)NN [aminoguanidine]
% change in CML, positive control [1]: Positive control aminoguanidine 0.03%; −41% CML; (p < 0.01).
% change in glycation vs. control (soluble bovine elastin; aminoguanidine 0.03%, p < 0.01): Aminoguanidine 0.03%: −99%; p < 0.01

Darutoside
Glycation (soluble bovine elastin; 15 ppm (combination: 15 ppm Darutoside + 15 ppm extract), elastin + fructose, 50° C., 9 days, control 6096 +/− 438): 5843 +/− 383 UFA
